# Data published in patent publication US12582625B2, “Methods for treating neuroblastoma” (priority 2015, dated 2026).
# “And” between values parts separate entries of the source, which are not always exact repeats. Equal entries are not always repeated. “Also recorded” adds a separate entry of the source.
# How the values were obtained:
# [1] = NMTRC 002: DFMO serum pharmacokinetics in children with NB; details: for AUC(0-t) / Tmax / Cmax: human, serum
# Description: Pharmacokinetic (PK) Analytical Method and Sample Collection. Patients were consented for all pharmacokinetic sampling and analysis. […] The extracted samples were injected into a liquid chromatograph equipped with an Atlantis Hilic Silica, 50×4.6 mm, 3 μm column. The mobile phase A was a mixture of Milli-Q type water with acetonitrile and ammonium acetate. The validated calibration range for this assay was from 50 to 100,000 ng/mL. […] Blood was not collected beyond 6 hours post dose as this trial was conducted on an outpatient basis, and this was judged to be an undue burden on patients.
# Statistical Methods. […] Urinary polyamine levels were derived from duplicate measurements of individual samples. […] Fisher's Exact Test was used to assess the likelihood that increases in urinary polyamine levels were associated with disease progression. Friedman's test for repeated measures analysis of variance was used to assess changes in contents of individual urinary polyamines.
# Samples were collected from patients prior to, and again at times 0.5, 1, 3, and 6 hours following drug administration on days 1 and 8 of the first cycle. […] Subsequent cycles commenced the day following the last day of the previous cycle.
# [2] = system: refractory or relapsed neuroblastoma; assay: NMTRC 002: tumor response and progression free survival; type: in vivo, human; details: for PFS (days), individual patients: DFMO alone cycle 1, then with etoposide; for Status or Reason off study, individual patients: PF = progression free, PD = progressive disease
# Description: Study Design and Treatment.
# Tumor and clinical responses were monitored as secondary endpoints. Eighteen subjects were evaluated for efficacy. This study used the (RECIST) Response Evaluation Criteria measurements in Solid Tumor from the NCI (27) modified for pediatrics as well as MIBG or PET and bone marrow response. Tumor assessments/imaging studies were obtained at baseline>7 days from prior therapy and <21 days from the start of study therapy. These were repeated at the end of the first cycle and again after every other cycle.
# [3] = system: high-risk neuroblastoma in complete remission; assay: NMTRC003 phase II prevention trial: event free and overall survival; type: in vivo, human
# From the text: Study Design. This was an open label, single agent, multicenter clinical trial for patients with high-risk neuroblastoma in complete remission at the completion of standard therapy. […] Prior to study entry, written informed consent was obtained from the subjects' parent(s) or guardian(s) and, when appropriate, written assent was obtained from subjects. ClinicalTrials.gov Identifiers: NCT01586260/NCT02395666.
# Subjects were required to have histologically confirmed International Neuroblastoma Staging System (INSS) high-risk neuroblastoma at the time of diagnosis. Subjects must have completed standard high-risk neuroblastoma (HRNB) therapy with 5-7 cycles of induction chemotherapy, surgical resection of primary tumor (if feasible), consolidative therapy with high-dose chemotherapy/autologous stem cell support and radiation therapy as indicated, and anti-GD2 antibody therapy with isotretinoin for up to 6 cycles. […] To be considered in complete remission, subjects had to have no radiographic evidence for persistent neuroblastoma by CT or MRI (and by metaiodobenzylguanidine (MIBG) in subjects whose tumors were originally MIBG avid), histologically negative bone marrow aspirate/biopsy, and normal urinary catecholamines as assessed by ratios of vanillylmandelic acid and homovanillic acid to creatinine. Subjects with residual masses or bone changes visible on CT or MRI could still be considered in CR if the lesions were negative by both MIBG and PET scans.
# Dosing diaries were required to be completed for each cycle. […] The primary endpoint was Event Free Survival (EFS); secondary objectives included Overall Survival (OS) and safety. EFS was defined as the period from the first day of administration of study drug to the first occurrence of relapse or death, and OS was defined as the first day of administration of study drug until death; subjects without an event were censored at the time of last contact. Safety analysis was conducted on all subjects who received at least one dose of study drug, and included the frequency, grading, expectedness and attribution of all adverse events as well as dose interruptions, dose reductions, and treatment discontinuation.
# Statistical Analysis: Estimation and hypothesis testing based on survival data. Event-free and overall survival were estimated using the method of Kaplan and Meier (Meier, 1958) while standard errors were estimated using Greenwood's formula. […] However, NMTRC003 patients enrolled on ANBL0032 represent a subset of the ANBL0032 population, patients event-free at the start of NMTRC003 therapy (6-10 months after the start of ANBL0032 therapy) (Yu et al., 2010). Therefore, it was necessary to adjust the published ANBL0032 EFS using the definition of conditional probability for a direct comparison. […]
# [4] = system: tumors harboring Ki-ras mutations; details: AOM-treated rats, reduced from 90% (Singh et al., 1994); cited from earlier work
# [5] = adults; cited from earlier work
structure (smiles),measurement,setting,value
"NCCCC(N)(C(=O)O)C(F)F (stereo not shown) [DFMO, 2,5-diamino-2-(difluoromethyl) pentanoic acid]",AUC0-6 hrs,"[1]; 500 mg/m^2 PO BID, Cycle 1",39.90 ± 24.16 (mcg/mL) × hrs
same,AUC0-6 hrs,"[1]; 750 mg/m^2 PO BID, Cycle 1",47.36 ± 18.57 (mcg/mL) × hrs
same,AUC0-6 hrs,"[1]; 750 mg/m^2 PO BID, Cycle 2 (with etoposide)",62.84 ± 39.47 (mcg/mL) × hrs
same,AUC0-6 hrs,"[1]; 1000 mg/m^2 PO BID, Cycle 1",60.05 ± 34.53 (mcg/mL) × hrs
same,AUC0-6 hrs,"[1]; 1000 mg/m^2 PO BID, Cycle 2 (with etoposide)",50.18 ± 32.57 (mcg/mL) × hrs
same,AUC0-6 hrs,"[1]; 1500 mg/m^2 PO BID, Cycle 1",108.38 ± 53.23 (mcg/mL) × hrs
same,AUC0-6 hrs,"[1]; 1500 mg/m^2 PO BID, Cycle 2 (with etoposide)",120.69 ± 31.22 (mcg/mL) × hrs
same,biologically effective doses of DFMO (serum concentration range),[1]; from clinical benefit in this study and adult cancer prevention studies,50-150 μM
same,AUC(0-t),"[1]; oral, 500 mg/m2",39000 ng·h/mL
same,AUC(0-t),"[1]; oral, 1500 mg/m2",121000 ng·h/mL
same,Tmax,"[1]; oral, mean tmax, all dose groups",2.5 to 3.75 h
same,Cmax,"[1]; po, 500 mg/m2, Cmax mean ± SD, 500 mg/m^2 PO BID, Cycle 1",9540 ± 5360 ng/mL
same,Tmax,"[1]; po, 500 mg/m2, tmax, 500 mg/m^2 PO BID, Cycle 1",3.75 ± 1.39 h
same,Cmax,"[1]; po, 750 mg/m2, Cmax mean ± SD, 750 mg/m^2 PO BID, Cycle 1",11900 ± 5220 ng/mL
same,Cmax,"[1]; po, 750 mg/m2, Cmax mean ± SD, 750 mg/m^2 PO BID, Cycle 2 (with etoposide)",14200 ± 7920 ng/mL
same,Tmax,"[1]; po, 750 mg/m2, tmax, 750 mg/m^2 PO BID, Cycle 1",3.6 ± 1.26 h
same,Tmax,"[1]; po, 750 mg/m2, tmax, 750 mg/m^2 PO BID, Cycle 2 (with etoposide)",2.6 ± 0.89 h
same,Cmax,"[1]; po, 1000 mg/m2, Cmax mean ± SD, 1000 mg/m^2 PO BID, Cycle 1",14700 ± 9070 ng/mL
same,Cmax,"[1]; po, 1000 mg/m2, Cmax mean ± SD, 1000 mg/m^2 PO BID, Cycle 2 (with etoposide)",14300 ± 6180 ng/mL
same,Tmax,"[1]; po, 1000 mg/m2, tmax, 1000 mg/m^2 PO BID, Cycle 1",3.17 ± 1.6 h
same,Tmax,"[1]; po, 1000 mg/m2, tmax, 1000 mg/m^2 PO BID, Cycle 2 (with etoposide)",3 h
same,Cmax,"[1]; po, 1500 mg/m2, Cmax mean ± SD, 1500 mg/m^2 PO BID, Cycle 1",29000 ± 15000 ng/mL
same,Cmax,"[1]; po, 1500 mg/m2, Cmax mean ± SD, 1500 mg/m^2 PO BID, Cycle 2 (with etoposide)",30700 ± 8180 ng/mL
same,Tmax,"[1]; po, 1500 mg/m2, tmax, 1500 mg/m^2 PO BID, Cycle 1",2.88 ± 1.45 h
same,Tmax,"[1]; po, 1500 mg/m2, tmax, 1500 mg/m^2 PO BID, Cycle 2 (with etoposide)",2.5 ± 0.9 h
same,mean Cmax and AUC versus oral dose,"[1]; in vivo, po",increased in a linear fashion
same,Overall average serum DFMO concentration,[1]; patients receiving 500 mg/m^2,9.54 μg/mL and 52.24 μM
same,Overall average serum DFMO concentration,[1]; patients receiving 1500 mg/m^2,30.71 μg/mL and 168.10 μM
same,patients alive without progression of disease,[2]; 2-4.5 years after starting DFMO,three subjects remain alive without progression of disease; also recorded: Three patients remain alive without progression of disease
same,subjects with best response of progressive disease,[2]; 18 evaluable subjects,5
same,subjects with best response of stable disease by RECIST,[2]; 18 evaluable subjects,12
same,patients with best response of PR,"[2]; 18 evaluable subjects, MIBG evaluable disease only",1
same,"Best Response (CT/MIBG), individual patients",[2]; DFMO dose 500 mg/m^2 BID,SD/PR
same,"PFS (days), individual patients",[2]; DFMO dose 500 mg/m^2 BID,94 days and 1573 days and 1559 days
same,"Status or Reason off study, individual patients",[2]; DFMO dose 500 mg/m^2 BID,Alive (PF)
same,"PFS (days), individual patients",[2]; DFMO dose 750 mg/m^2 BID,418 days and 103 days and 67 days and 57 days and 31 days
same,"PFS (days), individual patients",[2]; DFMO dose 1000 mg/m^2 BID,239 days and 64 days and 59 days
same,"Best Response (CT/MIBG), individual patients",[2]; DFMO dose 1500 mg/m^2 BID,SD/PR; also recorded: (CT Neg)/PR
same,"PFS (days), individual patients",[2]; DFMO dose 1500 mg/m^2 BID,663 days and 209 days and 136 days and 62 days (3×) and 21 days
same,"Status or Reason off study, individual patients",[2]; DFMO dose 1500 mg/m^2 BID,Alive (PF) and 2nd Leukemia
same,mean progression free survival (PFS),"[2]; NMTRC 002, all evaluable subjects",420 days
same,PFS,[2]; ODC SNP rs2302615 genotype Any A,282.1 ± 499.6
same,PFS,[2]; ODC SNP rs2302615 genotype GG,326.7 ± 501.6
same,PFS,[2]; ODC SNP rs2302616 genotype Any T,498.0 ± 635.4
same,PFS,[2]; ODC SNP rs2302616 genotype GG,110.8 ± 119.1
same,median progression free survival (PFS),"[2]; all 18 evaluable subjects, 95% CI: 62-418 days (Saulnier Sholler et al., 2015)",80.5 days
same,PFS,[2]; patients with GG at rs2302616,110 days
same,PFS,[2]; patients with any minor T allele at rs2302616,498 days
same,response by PET scans,[2]; three subjects evaluated by PET,two had a complete response and one a partial response
same,subjects who have relapsed to date,[3]; ITT population (91),6
same,relapses after completion of DFMO therapy (all 27 cycles),[3]; follow up of up to 3.5 years,no late relapses and None
same,outcome of subjects with Curie score greater than 0 prior to immunotherapy,"[3]; n=4 of 52 with known Curie score, ANBL0032 followed by DFMO",remain in remission
same,2-year event free survival (EFS),[3]; subjects previously enrolled on ANBL0032 (n=74),95% (±3%) and 95% (+/−3%)
same,tumors harboring Ki-ras mutations,[4],36%
same,elimination half-life of DFMO,[5],2 to 4 h
